Results: US11285136B2, “Nanoparticles for controlled release of Sorafenib and Sorafenib derivatives” (DISTRETTO TECNOLOGICO SICILIA MICRO NANO SISTEMI S.C.A.R.L., priority 2017, dated 2022)
“Also recorded” adds a separate entry of the source.

Assays:
HepG2 = assay: Cell viability assay (CellTiter) on HepG2 cells; assay type: cell-based, human
Description: (§1) The human hepatocellular carcinoma cell lines, HepG2 and Hep3B, were obtained from the American Type Culture Collection (ATCC). Cells were kept in 5% CO2 and grown in Roswell Park Memorial Institute (RPMI) medium (SIGMA, Milan, Italy), supplemented with 10% (v/v) fetal bovine serum (FBS) (Gibco, Life Technologies, Monza MB, Italy), 2 mM L-glutamine, 100 U/ml of penicillin-streptomycin and 1 mM of sodium pyruvate (SIGMA, Milan, Italy). Cell lines were regularly checked for possible mycoplasma contamination.
(§2) The latter were resuspended in sterile conditions in sterile H2O, sonicated for 20 min in a water sonicator, and diluted with a complete RPMI volume (2×). At the end of the treatment, cell viability assays were performed using the OneSolution aqueous CellTiter kit (Promega Corporation, Madison, Wis., USA). The percentage of cell viability was calculated with reference to the absorbance measured in the control cells. The experiments were performed in triplicate and the values expressed as mean±SD of three independent experiments.

Hep3B = assay: Cell viability assay (CellTiter) on Hep3B cells; assay type: cell-based, human; conditions: 72 hours
Description: as §1, §2

[1] = In vitro release of Sorafenib, dialysis tube method; assay type: physicochemical; conditions: SGF, SIF and PBS, 37° C.
Description: During the experiment, the temperature was maintained at 37° C. in a thermostatic stirrer and with stirring of 100 rpm. At scheduled time intervals, 1 ml aliquots were taken from the external medium and replaced with an equal volume of fresh receiving medium. The released Sorafenib was quantified by HPLC analysis. Each in vitro release experiment was repeated in triplicate.
A control experiment was also carried out to determine the dissolution of the free drug: an appropriate amount of Sorafenib was dispersed in the receiving medium, in order to have a final concentration of Sorafenib equal to that present in the nanoparticles, the dispersion was then introduced into a dialysis tube (cut-off 12000-14000 Da) which was immersed in a container containing the receiving medium. The amount of Sorafenib in the receiving medium was detected by HPLC analysis.
The amount of released Sorafenib was expressed as a percentage ratio between the released drug weight and the total amount of Sorafenib loaded into the nanoparticles. […] The cumulative release of Sorafenib in 24 hours was about 63% in SIF (panel B) and about 55% in PBS (panel C).

[2] = test system: Hep3B hepatocellular carcinoma; assay: Hep3B xenograft in nude mice, therapeutic efficacy; assay type: in vivo; conditions: 10 mg/kg daily (6 days/week), 17 days, FIG. 5A
Description: (§3) Male nude mice (fox1 nu/nu) of 4 weeks of life were purchased at Envigo (Udine, Italy) and left to acclimatize for 1 week. Hep3B cells (10×10^6 in 0.2 ml PBS), undergoing logarithmic growth, were inoculated in the right flank of the animals. When the tumors were palpable (about 300 mm^3), the mice were randomly divided into four groups of five animals each, with the various tumor volumes equally distributed between the four groups. Each group was treated for 17 days as indicated below.
Group 1: daily treatment (6 days/week) by intraperitoneal (IP) injection with 10 mg/kg of Sorafenib tosylate resuspended in DMSO and further diluted in a 25% solution of ethanol (DMSO-EtOH).
Group 2: carrier only (DMSO-EtOH).
Group 4: daily treatment (6 days/week) with 10 mg/kg of empty PBB nanoparticles resuspended in RPMI.
To quantify the Ki-67 cell proliferation marker expression, the ImmunoRatio® software (http://jvsmicroscope.uta.fi/immunoratio/) was used which, using a color deconvolution algorithm, calculates the percentage of positively marked area (area stained with diaminobenzidine) towards the total nuclear area. The hematoxylin stains were also acquired to analyze the neo-vascularization of the tumor, using the Leica DMR microscope equipped with a Leica DFC 320 digital camera.

[3] = Body weight and mobility of treated xenograft mice; assay type: in vivo, nude mice; conditions: 10 mg/kg daily (6 days/week), 17 days, FIG. 5B
Description: as §3

[4] = cited from earlier work
[5] = oral tablets, strong first-pass effect; cited from earlier work
[6] = Biodistribution of Sorafenib in tissues of treated mice; conditions: compared with Sorafenib PBB, p<0.01, FIG. 6
Description: The lyophilized nanoparticle samples were resuspended and sonicated as reported in cell viability assays. Tumor volumes and body weight were recorded twice a week as previously described (Cusimano et al., Cytotoxic activity of the novel small molecule AKT inhibitor SC66 in hepatocellular carcinoma cells. Oncotarget 2015, 6, 1707-1722). The mice were sacrificed by cervical dislocation when the tumor mass exceeded 10% of the body weight of the animals, or when the tumor mass appeared ulcerated or other morbid conditions were found, in accordance with the institutional guidelines and in accordance with the national law (Legislative Decree No. 26 4-3-2014) and international laws and policies (ECC Council Directive 86/609, OJ L358.1, Dec. 12, 1987). […] At the end of the trial, tumors, liver, kidneys, lungs and spleen were collected from each animal. Half of each tumor, or organ, was frozen in liquid nitrogen and stored at −80° C. for biodistribution analyzes, while the other half was fixated in formalin and used for immunohistochemistry analysis.
Sorafenib was extracted from the tissues of the treated animals following the procedure described in Craparo E F et al. Galactosylated polymeric carriers for liver targeting of Sorafenib. […]

IC50 (HepG2; Homo sapiens, HepG2, 72 hours, mean ± DS): 5.5 ± 1 µM | IC50 (Hep3B; Homo sapiens, mean ± DS): 3.5 ± 0.5 µM | dissolution of free drug [1]: almost complete within two hours | amount of Sorafenib detected in the lungs [6]: significantly higher
SMILES: CNC(=O)c1cc(Oc2ccc(NC(=O)Nc3ccc(Cl)c(C(F)(F)F)c3)cc2)ccn1 [Sorafenib, 4-[4-[[4-chloro-3-(trifluoromethyl)phenyl]carbamoylamino]phenoxy]-N-methyl-pyridine-2-carboxamide]
cell viability (HepG2; HepG2, 0.6-10 μM, 72 hours, FIG. 3): strongly decreased in a dose-dependent manner | cell viability (Hep3B; 0.6-10 μM, FIG. 3): strongly decreased in a dose-dependent manner | tumor growth [2]: reduced tumor growth compared to the carrier alone, although this difference was not significant | body weight [3]: did not show a significant loss of body weight | solubility in water [4]: slightly soluble; also recorded: poorly soluble | bioavailability [5]: low
